US6355799B1, “Substituted benzene compounds, process for their preparation, and herbicidal and defoliant compositions containing them” (ISK Americas Incorporated, priority 1997, dated 2002)

Experiments:
Assay type in all cases: in vivo
[1] = test system: ivyleaf morningglory (Ipomoea hederacea, IPOHE); experiment: Pre-emerge test, greenhouse herbicide activity screening; conditions: rated 14 days after application, 0 = no damage, 100 = complete death
Procedure, shortened: (§1)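 Visual ratings on a 0-100 scale (0 no damage, 100 all plants dead) were taken at 14 days after treatment. Rates of 15-1000 g ai/ha in acetone, 187 l/ha, were sprayed onto soil one day after planting (pre-emerge) or onto 2-3 leaf plants with 0.25% v/v surfactant (post-emerge).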

[2] = test system: velvetleaf (Abutilon theophrasti, ABUTH); experiment: as above; conditions: rated 14 days after application, 0 = no damage, 100 = complete death
Procedure, shortened: as §1

[3] = test system: green foxtail (Setaria viridis, SETVI); experiment: as above; conditions: rated 14 days after application, 0 = no damage, 100 = complete death
Procedure, shortened: as §1

[4] = test system: sicklepod (Cassia obtusifolia, CASOB); experiment: as above; conditions: rated 14 days after application, 0 = no damage, 100 = complete death
Procedure, shortened: as §1

[5] = test system: large crabgrass (Digitaria sanguinalis, DIGSA); experiment: as above; conditions: rated 14 days after application, 0 = no damage, 100 = complete death
Procedure, shortened: as §1

[6] = test system: barnyardgrass (Echinochloa crus-galli, ECHCG); experiment: as above; conditions: rated 14 days after application, 0 = no damage, 100 = complete death
Procedure, shortened: as §1

[7] = test system: johnsongrass (Sorghum halepense, SORHA); experiment: as above; conditions: rated 14 days after application, 0 = no damage, 100 = complete death
Procedure, shortened: as §1

[8] = test system: lambsquarters (Chenopodium album, CHEAL); experiment: as above; conditions: rated 14 days after application, 0 = no damage, 100 = complete death
Procedure, shortened: as §1

[9] = test system: field corn (Zea mays L., var. Dekalb 535, CORN); experiment: Pre-emerge test, crop safety; conditions: rated 14 days after application, 0 = no damage, 100 = complete death
Procedure, shortened: (§2)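 Compounds in acetone were track-sprayed at 15-1000 g ai/ha (187 l/ha) on sandy loam pots: pre-emerge one day after seeding, post-emerge at 2-3 leaf stage with 0.25% v/v non-ionic surfactant. Phytotoxicity was rated 14 days later on a 0 (no damage) to 100 (complete death) scale.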

[10] = test system: upland rice (Oryza sp., var. Tebonnet, RICE); experiment: Pre-emerge test, crop safety; conditions: rated 14 days after application, 0 = no damage, 100 = complete death
Procedure, shortened: as §2

[11] = test system: field corn (Zea mays L., var. Dekalb 535, CORN); experiment: Post-emerge test, crop safety; conditions: post-emerge, 14 days after application, rating scale 0-100
Procedure, shortened: as §1

[12] = test system: upland rice (Oryza sp., var. Tebonnet, RICE); experiment: Post-emerge test, crop safety; conditions: post-emerge, 14 days after application, rating scale 0-100
Procedure, shortened: as §1

[13] = test system: ivyleaf morningglory (Ipomoea hederacea, IPOHE); experiment: Post-emerge test, greenhouse herbicide activity screening; conditions: post-emerge, 14 days after application, rating scale 0-100
Procedure, shortened: (§3)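 Herbicidal damage is scored 0 (none) to 100 (complete plant death) two weeks after a simulated field spray. Rates span 15–1000 g ai/ha, delivered in acetone at 187 l/ha. For post-emergence treatments, plants have 2–3 leaves and the spray carries 0.25% v/v non-ionic surfactant.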

[14] = test system: velvetleaf (Abutilon theophrasti, ABUTH); experiment: as above; conditions: post-emerge, 14 days after application, rating scale 0-100
Procedure, shortened: as §3

[15] = test system: green foxtail (Setaria viridis, SETVI); experiment: as above; conditions: post-emerge, 14 days after application, rating scale 0-100
Procedure, shortened: as §3

[16] = test system: sicklepod (Cassia obtusifolia, CASOB); experiment: as above; conditions: post-emerge, 14 days after application, rating scale 0-100
Procedure, shortened: as §3

[17] = test system: large crabgrass (Digitaria sanguinalis, DIGSA); experiment: as above; conditions: post-emerge, 14 days after application, rating scale 0-100
Procedure, shortened: as §3

[18] = test system: barnyardgrass (Echinochloa crus-galli, ECHCG); experiment: as above; conditions: post-emerge, 14 days after application, rating scale 0-100
Procedure, shortened: as §3

[19] = test system: johnsongrass (Sorghum halepense, SORHA); experiment: as above; conditions: post-emerge, 14 days after application, rating scale 0-100
Procedure, shortened: as §3

[20] = test system: redroot pigweed (Amaranthus retroflexus, AMARE); experiment: as above; conditions: post-emerge, 14 days after application, rating scale 0-100
Procedure, shortened: as §3

[21] = test system: lambsquarters (Chenopodium album, CHEAL); experiment: as above; conditions: post-emerge, 14 days after application, rating scale 0-100
Procedure, shortened: as §3

[22] = test system: redroot pigweed (Amaranthus retroflexus, AMARE); experiment: Pre-emerge test, greenhouse herbicide activity screening; conditions: rated 14 days after application, 0 = no damage, 100 = complete death
Procedure, shortened: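 Plants grown in 10 cm pots of sandy loam mix received acetone-dissolved compounds through a moving flat-fan nozzle. Doses ranged from 15 to 1000 g ai/ha. Pre-emerge pots were seeded one day earlier, post-emerge pots 8–21 days earlier. Fourteen days on, each pot was graded 0–100 for damage.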

## Cn1c(C(F)(F)F)cc(=O)n(-c2c(F)cc(Cl)c(O)c2NC(=O)c2ncccn2)c1=O [2-102]
[1]; 63 g ai/ha
  Pre-emerge Herbicidal Activity, phytotoxicity rating (0-100), IPOHE: 0
[1]; 250 g ai/ha
  Pre-emerge Herbicidal Activity, phytotoxicity rating (0-100), IPOHE: 0
[2]; 63 g ai/ha
  Pre-emerge Herbicidal Activity, phytotoxicity rating (0-100), ABUTH: 0
[2]; 250 g ai/ha
  Pre-emerge Herbicidal Activity, phytotoxicity rating (0-100), ABUTH: 0
[3]; 63 g ai/ha
  Pre-emerge Herbicidal Activity, phytotoxicity rating (0-100), SETVI: 0
[3]; 250 g ai/ha
  Pre-emerge Herbicidal Activity, phytotoxicity rating (0-100), SETVI: 0
[4]; 63 g ai/ha
  Pre-emerge Herbicidal Activity, phytotoxicity rating (0-100), CASOB: 0
[4]; 250 g ai/ha
  Pre-emerge Herbicidal Activity, phytotoxicity rating (0-100), CASOB: 0
[5]; 63 g ai/ha
  Pre-emerge Herbicidal Activity, phytotoxicity rating (0-100), DIGSA: 0
[5]; 250 g ai/ha
  Pre-emerge Herbicidal Activity, phytotoxicity rating (0-100), DIGSA: 0
[6]; 63 g ai/ha
  Pre-emerge Herbicidal Activity, phytotoxicity rating (0-100), ECHCG: 0
[6]; 250 g ai/ha
  Pre-emerge Herbicidal Activity, phytotoxicity rating (0-100), ECHCG: 0
[7]; 63 g ai/ha
  Pre-emerge Herbicidal Activity, phytotoxicity rating (0-100), SORHA: 0
[7]; 250 g ai/ha
  Pre-emerge Herbicidal Activity, phytotoxicity rating (0-100), SORHA: 0
[8]; 63 g ai/ha
  Pre-emerge Herbicidal Activity, phytotoxicity rating (0-100), CHEAL: 0
[8]; 250 g ai/ha
  Pre-emerge Herbicidal Activity, phytotoxicity rating (0-100), CHEAL: 0
[9]; 63 g ai/ha
  Pre-emerge phytotoxicity rating (0-100), crop damage, CORN: 0
[9]; 250 g ai/ha
  Pre-emerge phytotoxicity rating (0-100), crop damage, CORN: 0
[10]; 63 g ai/ha
  Pre-emerge phytotoxicity rating (0-100), crop damage, RICE: 0
[10]; 250 g ai/ha
  Pre-emerge phytotoxicity rating (0-100), crop damage, RICE: 0
[11]; 63 g ai/ha
  phytotoxicity rating CORN: 0
[11]; 250 g ai/ha
  phytotoxicity rating CORN: 0
[12]; 63 g ai/ha
  phytotoxicity rating RICE: 0
[12]; 250 g ai/ha
  phytotoxicity rating RICE: 0
[13]; 63 g ai/ha
  phytotoxicity rating IPOHE: 0
[13]; 250 g ai/ha
  phytotoxicity rating IPOHE: 0
[14]; 63 g ai/ha
  phytotoxicity rating ABUTH: 0
[14]; 250 g ai/ha
  phytotoxicity rating ABUTH: 30
[15]; 63 g ai/ha
  phytotoxicity rating SETVI: 0
[15]; 250 g ai/ha
  phytotoxicity rating SETVI: 0
[16]; 63 g ai/ha
  phytotoxicity rating CASOB: 0
[16]; 250 g ai/ha
  phytotoxicity rating CASOB: 0
[17]; 63 g ai/ha
  phytotoxicity rating DIGSA: 0
[17]; 250 g ai/ha
  phytotoxicity rating DIGSA: 0
[18]; 63 g ai/ha
  phytotoxicity rating ECHCG: 0
[18]; 250 g ai/ha
  phytotoxicity rating ECHCG: 0
[19]; 63 g ai/ha
  phytotoxicity rating SORHA: 0
[19]; 250 g ai/ha
  phytotoxicity rating SORHA: 0
[20]; 63 g ai/ha
  phytotoxicity rating AMARE: 0
[20]; 250 g ai/ha
  phytotoxicity rating AMARE: 40
[21]; 63 g ai/ha
  phytotoxicity rating CHEAL: 0
[21]; 250 g ai/ha
  phytotoxicity rating CHEAL: 0
[22]; 63 g ai/ha
  Pre-emerge Herbicidal Activity, phytotoxicity rating (0-100), AMARE: 30
[22]; 250 g ai/ha
  Pre-emerge Herbicidal Activity, phytotoxicity rating (0-100), AMARE: 0
